Like-named read-outs stand apart in the source and are kept apart here.
System: ACC2 CT
Test: NADH reverse-coupled assay
Type: biochemical, human
Details: reverse reaction
Experimental: In the reverse reaction, ACC2 CT catalyzes the production of Acetyl CoA using malonyl CoA and biocytin as the substrates.
The activity of ACC2 CT in the reverse reaction is measured indirectly by coupling the reaction with two other enzymes, malate dehydrogenase and citrate synthase. Malate dehydrogenase converts NAD+ and malate to produce NADH and oxaloacetate. The acetyl CoA produced by the ACC2 CT reverse reaction and the oxaloacetate produced by the malate dehydrogenase reaction are consumed as the substrates for the citrate synthase reaction. The final products of the citrate synthase reaction are citric acid and CoA, but it is the production of NADH that acts as the readout for the activity of ACC2 CT. The conversion of NAD+ to NADH is detected by reading absorbance at 340 nm.
The final assay conditions are 50 nM ACC2 CT, 1 mM Malonyl CoA, 20 mM Biocytin, 8 mM Malic Acid, 3 mM NAD+, 100 units/mL Malate Dehydrogenase, 20 units/mL Citrate Synthase, 50 mM Hepes pH 7.0, 100 mM NaCl, 0.01% Tween 20, and compounds are used with a 200-fold dilution of 100% DMSO stock for a final concentration of 0.5% DMSO.
Absorbance data is collected at 340 nm and 37° C. for at least 30 minutes. Linear kinetic rates (mOD/min) are used to calculate % inhibition values of the compounds tested.

SMILES | Km (against 50 nM ACC2/20 mM Biocytin, 37° C., absorbance 340 nm, read-out: kM of Malonyl CoA) [µM] | Km (against ACC2/No Biocytin, 37° C., absorbance 340 nm, read-out: kM of Malonyl CoA) [µM] | Km (could not be precisely determined, estimated, read-out: kM of Biocytin) [µM]
CC(C)(COP(=O)(O)OP(=O)(O)OC[C@H]1O[C@@H](n2cnc3c(N)ncnc32)[C@H](O)[C@@H]1OP(=O)(O)O)[C@@H](O)C(=O)NCCC(=O)NCCSC(=O)CC(=O)O [Malonyl CoA] | 160 | 130 | –
N[C@@H](CCCCNC(=O)CCCC[C@@H]1SC[C@@H]2NC(=O)N[C@@H]21)C(=O)O [Biocytin] | – | – | ~20000

From US20090155815A1, “CRYSTAL STRUCTURE OF THE CARBOXYL TRANSFERASE DOMAIN OF HUMAN ACETYL-COA CARBOXYLASE 2 PROTEIN (ACC2 CT) AND USES THEREOF” (priority 2007, published 2009)
